Data on 3 compounds can be found in ChEMBL document CHEMBL1152560, “Substituted 2-arylbenzothiazoles as kinase inhibitors: hit-to-lead optimization” (Bioorg Med Chem, 2009).

Experiment [1] has as its target Casein kinase I isoform alpha (Homo sapiens) (UniProt P48729). In words: Residual activity of CK1alpha1 at 10 uM by microplate scintillation counting.
In experiment [2] the target is Platelet-derived growth factor receptor beta (Homo sapiens, UniProt P09619). In words: Residual activity of PDGFRbeta at 0.1 uM by microplate scintillation counting.
Experiment [3] addresses Serine/threonine-protein kinase WNK2 (Homo sapiens) (UniProt Q9Y3S1). In words: Residual activity of WNK2 at 10 uM by microplate scintillation counting.
The target in experiment [4] is Protein-tyrosine kinase 2-beta (Homo sapiens) (UniProt Q14289). As to the kind of experiment: Residual activity of PYK2 at 10 uM by microplate scintillation counting.
Experiment [5] addresses Cyclin-dependent kinase 1/cyclin B1 (Homo sapiens) (UniProt P06493+P14635). As to the kind of experiment: Residual activity of CDK1/CyclinB1 at 10 uM by microplate scintillation counting. It counts as protein-complex assay.
For experiment [6], the target named is Non-receptor tyrosine-protein kinase TYK2 (Homo sapiens) (UniProt P29597). In words: Residual activity of TYK2 at 0.1 uM by microplate scintillation counting.
The target of experiment [7] is Mast/stem cell growth factor receptor Kit (Homo sapiens) (UniProt P10721). As to the kind of experiment: Residual activity of wild type KIT at 10 uM by microplate scintillation counting.
In experiment [8] the target is Maternal embryonic leucine zipper kinase (Homo sapiens) (UniProt Q14680). In words: Residual activity of MELK at 0.1 uM by microplate scintillation counting.
For experiment [9], the target named is Serine/threonine-protein kinase PAK 1 (Homo sapiens) (UniProt Q13153). In words: Residual activity of PAK1 at 1 uM by microplate scintillation counting.
For experiment [10], the target named is Serine/threonine-protein kinase PAK 6 (Homo sapiens) (UniProt Q9NQU5). In words: Residual activity of PAK6 at 10 uM by microplate scintillation counting.
Experiment [11] concerns the target Interleukin-1 receptor-associated kinase 1 (Homo sapiens) (UniProt P51617). As to the kind of experiment: Residual activity of IRAKI at 0.1 uM by microplate scintillation counting.
Experiment [12] deals with Serine/threonine-protein kinase pim-1 (Homo sapiens) (UniProt P11309). As to the kind of experiment: Residual activity of PIM1 at 0.1 uM by microplate scintillation counting.
Experiment [13] has as its target Ribosomal protein S6 kinase alpha-4 (Homo sapiens) (UniProt O75676). In words: Residual activity of RPS6KA4 at 10 uM by microplate scintillation counting.
In experiment [14] the target is Focal adhesion kinase 1 (Homo sapiens) (UniProt Q05397). In words: Residual activity of FAK at 1 uM by microplate scintillation counting.
Experiment [15] addresses LIM domain kinase 1 (Homo sapiens) (UniProt P53667). In words: Residual activity of LIMK1 at 1 uM by microplate scintillation counting.
Experiment [16] addresses CDK6/cyclin D1 (Homo sapiens) (UniProt P24385+Q00534). As to the kind of experiment: Residual activity of CDK6/Cyclin D1 at 1 uM by microplate scintillation counting. Format: protein-complex assay.
Experiment [17] deals with Mitogen-activated protein kinase 14 (Homo sapiens) (UniProt Q16539). In words: Residual activity of p38alpha at 0.1 uM by microplate scintillation counting.
The target of experiment [18] is T1, Serine/threonine-protein kinase Nek2 (Homo sapiens) (UniProt P51955).
T1 sequence (whole entry): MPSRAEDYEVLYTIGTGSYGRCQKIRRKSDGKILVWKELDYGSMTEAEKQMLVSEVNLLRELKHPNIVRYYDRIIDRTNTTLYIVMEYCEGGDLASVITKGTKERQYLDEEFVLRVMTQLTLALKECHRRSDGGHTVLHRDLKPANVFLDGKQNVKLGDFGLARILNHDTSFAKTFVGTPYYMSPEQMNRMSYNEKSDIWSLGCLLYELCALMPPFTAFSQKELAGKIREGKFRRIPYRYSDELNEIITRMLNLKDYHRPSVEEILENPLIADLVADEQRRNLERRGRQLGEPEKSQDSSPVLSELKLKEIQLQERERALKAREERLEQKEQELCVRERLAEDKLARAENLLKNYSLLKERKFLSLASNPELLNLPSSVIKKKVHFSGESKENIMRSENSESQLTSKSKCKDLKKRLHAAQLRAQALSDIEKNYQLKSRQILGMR
In words: Residual activity of NEK2 at 10 uM by microplate scintillation counting.

For experiment [19], the target named is Fibroblast growth factor receptor 3 (Homo sapiens) (UniProt P22607). As to the kind of experiment: Residual activity of FGFR3 at 1 uM by microplate scintillation counting.
Experiment [20] deals with T1, Serine/threonine-protein kinase Nek2 (Homo sapiens). As to the kind of experiment: Residual activity of NEK2 at 1 uM by microplate scintillation counting.
The target of experiment [21] is T2, Serine/threonine-protein kinase 17A (Homo sapiens) (UniProt Q9UEE5).
T2 sequence (whole entry): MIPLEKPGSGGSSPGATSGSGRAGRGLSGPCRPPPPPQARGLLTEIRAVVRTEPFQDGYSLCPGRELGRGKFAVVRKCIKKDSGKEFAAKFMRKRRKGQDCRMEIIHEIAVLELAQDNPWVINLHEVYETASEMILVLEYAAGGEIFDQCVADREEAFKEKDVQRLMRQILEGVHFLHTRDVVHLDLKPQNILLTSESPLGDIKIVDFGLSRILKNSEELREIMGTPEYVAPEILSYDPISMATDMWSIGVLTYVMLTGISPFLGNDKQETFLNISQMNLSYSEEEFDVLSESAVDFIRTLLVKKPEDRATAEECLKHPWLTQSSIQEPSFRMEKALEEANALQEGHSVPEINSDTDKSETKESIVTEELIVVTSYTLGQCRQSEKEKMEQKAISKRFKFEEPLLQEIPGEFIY
As to the kind of experiment: Residual activity of STK17A at 1 uM by microplate scintillation counting.

The structures appear in SMILES notation.

Chain of Non-receptor tyrosine-protein kinase TYK2 (Homo sapiens) (P29597 whole entry): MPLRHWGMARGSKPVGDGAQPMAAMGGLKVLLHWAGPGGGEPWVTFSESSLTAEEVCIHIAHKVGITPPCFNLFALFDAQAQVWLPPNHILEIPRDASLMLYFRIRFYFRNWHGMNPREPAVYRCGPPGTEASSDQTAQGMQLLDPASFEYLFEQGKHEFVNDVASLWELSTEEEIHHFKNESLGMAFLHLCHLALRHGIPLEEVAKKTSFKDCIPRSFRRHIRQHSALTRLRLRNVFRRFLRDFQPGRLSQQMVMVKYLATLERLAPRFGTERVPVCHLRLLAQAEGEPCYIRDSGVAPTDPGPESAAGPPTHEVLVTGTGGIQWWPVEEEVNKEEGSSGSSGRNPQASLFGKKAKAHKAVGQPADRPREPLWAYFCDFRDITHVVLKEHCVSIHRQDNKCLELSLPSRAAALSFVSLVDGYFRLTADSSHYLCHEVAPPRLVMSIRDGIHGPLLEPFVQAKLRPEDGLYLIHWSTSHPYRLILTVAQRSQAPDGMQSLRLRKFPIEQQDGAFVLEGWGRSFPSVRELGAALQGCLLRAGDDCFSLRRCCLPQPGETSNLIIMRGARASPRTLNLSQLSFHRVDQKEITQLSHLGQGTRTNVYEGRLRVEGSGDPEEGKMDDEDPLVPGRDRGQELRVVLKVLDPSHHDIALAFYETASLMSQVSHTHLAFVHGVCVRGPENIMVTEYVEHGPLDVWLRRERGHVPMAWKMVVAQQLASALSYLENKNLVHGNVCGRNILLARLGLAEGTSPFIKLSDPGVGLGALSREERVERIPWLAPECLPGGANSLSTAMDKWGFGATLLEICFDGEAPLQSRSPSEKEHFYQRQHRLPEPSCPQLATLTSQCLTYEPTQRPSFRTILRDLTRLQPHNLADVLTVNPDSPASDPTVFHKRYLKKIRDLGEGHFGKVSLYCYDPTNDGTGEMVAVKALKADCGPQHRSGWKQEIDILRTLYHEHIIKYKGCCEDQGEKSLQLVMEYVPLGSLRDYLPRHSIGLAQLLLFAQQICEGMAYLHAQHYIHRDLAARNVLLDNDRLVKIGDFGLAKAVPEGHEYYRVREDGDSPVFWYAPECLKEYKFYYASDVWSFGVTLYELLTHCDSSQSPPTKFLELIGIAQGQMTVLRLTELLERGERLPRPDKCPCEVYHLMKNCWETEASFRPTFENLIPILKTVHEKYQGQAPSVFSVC
Chain of Fibroblast growth factor receptor 3 (Homo sapiens) (P22607 23-806 limits assumed): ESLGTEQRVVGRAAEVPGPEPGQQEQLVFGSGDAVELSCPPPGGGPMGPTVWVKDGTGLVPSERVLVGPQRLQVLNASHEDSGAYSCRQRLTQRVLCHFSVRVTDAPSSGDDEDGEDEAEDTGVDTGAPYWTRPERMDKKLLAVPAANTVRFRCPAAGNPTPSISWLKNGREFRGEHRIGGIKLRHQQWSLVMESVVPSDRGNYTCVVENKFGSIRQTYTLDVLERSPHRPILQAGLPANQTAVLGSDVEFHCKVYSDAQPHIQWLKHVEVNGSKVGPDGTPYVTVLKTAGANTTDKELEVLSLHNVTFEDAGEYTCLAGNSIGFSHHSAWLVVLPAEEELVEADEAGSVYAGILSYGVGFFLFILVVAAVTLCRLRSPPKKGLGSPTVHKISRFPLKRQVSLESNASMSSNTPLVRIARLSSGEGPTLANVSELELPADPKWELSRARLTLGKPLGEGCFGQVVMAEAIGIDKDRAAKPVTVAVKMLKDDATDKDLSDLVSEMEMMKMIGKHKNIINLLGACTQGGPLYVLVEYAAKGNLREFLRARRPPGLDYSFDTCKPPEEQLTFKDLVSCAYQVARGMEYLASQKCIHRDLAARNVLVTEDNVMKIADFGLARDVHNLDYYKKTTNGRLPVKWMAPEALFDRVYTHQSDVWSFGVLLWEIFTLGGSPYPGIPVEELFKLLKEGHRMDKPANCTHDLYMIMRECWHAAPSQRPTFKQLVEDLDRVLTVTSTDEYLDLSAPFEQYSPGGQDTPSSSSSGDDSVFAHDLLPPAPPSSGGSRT
Chain of Serine/threonine-protein kinase PAK 1 (Homo sapiens) (Q13153 whole entry): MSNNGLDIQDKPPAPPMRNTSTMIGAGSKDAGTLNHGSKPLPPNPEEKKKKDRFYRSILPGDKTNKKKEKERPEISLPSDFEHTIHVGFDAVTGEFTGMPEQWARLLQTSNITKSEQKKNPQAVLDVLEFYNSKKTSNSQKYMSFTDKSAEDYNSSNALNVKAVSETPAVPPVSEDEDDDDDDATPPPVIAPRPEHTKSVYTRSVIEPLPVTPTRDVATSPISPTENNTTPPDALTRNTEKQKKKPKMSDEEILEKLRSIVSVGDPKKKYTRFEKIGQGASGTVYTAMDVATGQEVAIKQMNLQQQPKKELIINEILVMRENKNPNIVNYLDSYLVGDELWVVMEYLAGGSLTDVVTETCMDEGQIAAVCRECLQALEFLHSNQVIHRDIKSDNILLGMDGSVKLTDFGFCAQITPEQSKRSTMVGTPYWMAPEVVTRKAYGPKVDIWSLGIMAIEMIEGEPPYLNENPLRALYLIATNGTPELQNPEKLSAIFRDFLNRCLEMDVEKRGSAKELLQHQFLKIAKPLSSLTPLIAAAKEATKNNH
Chain of LIM domain kinase 1 (Homo sapiens) (P53667 whole entry, looked up, the tested form may be a part): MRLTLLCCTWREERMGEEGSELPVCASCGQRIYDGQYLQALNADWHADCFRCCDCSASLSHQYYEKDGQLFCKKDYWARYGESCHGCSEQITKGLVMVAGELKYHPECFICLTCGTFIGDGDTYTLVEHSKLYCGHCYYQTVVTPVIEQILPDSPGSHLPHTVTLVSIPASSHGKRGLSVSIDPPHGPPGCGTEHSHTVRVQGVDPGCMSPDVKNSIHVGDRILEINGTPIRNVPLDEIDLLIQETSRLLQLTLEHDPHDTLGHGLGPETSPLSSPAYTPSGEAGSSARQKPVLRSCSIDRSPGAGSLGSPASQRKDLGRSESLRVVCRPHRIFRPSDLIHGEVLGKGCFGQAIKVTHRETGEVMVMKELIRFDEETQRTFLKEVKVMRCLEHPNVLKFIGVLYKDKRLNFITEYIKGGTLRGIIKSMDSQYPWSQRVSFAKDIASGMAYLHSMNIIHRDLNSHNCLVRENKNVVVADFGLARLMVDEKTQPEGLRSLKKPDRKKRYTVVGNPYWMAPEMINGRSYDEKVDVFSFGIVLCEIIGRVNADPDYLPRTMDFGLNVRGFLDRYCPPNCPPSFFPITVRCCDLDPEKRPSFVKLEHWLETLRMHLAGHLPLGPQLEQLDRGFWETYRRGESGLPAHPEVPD
Chain of Focal adhesion kinase 1 (Homo sapiens) (Q05397 2-1052 limits assumed): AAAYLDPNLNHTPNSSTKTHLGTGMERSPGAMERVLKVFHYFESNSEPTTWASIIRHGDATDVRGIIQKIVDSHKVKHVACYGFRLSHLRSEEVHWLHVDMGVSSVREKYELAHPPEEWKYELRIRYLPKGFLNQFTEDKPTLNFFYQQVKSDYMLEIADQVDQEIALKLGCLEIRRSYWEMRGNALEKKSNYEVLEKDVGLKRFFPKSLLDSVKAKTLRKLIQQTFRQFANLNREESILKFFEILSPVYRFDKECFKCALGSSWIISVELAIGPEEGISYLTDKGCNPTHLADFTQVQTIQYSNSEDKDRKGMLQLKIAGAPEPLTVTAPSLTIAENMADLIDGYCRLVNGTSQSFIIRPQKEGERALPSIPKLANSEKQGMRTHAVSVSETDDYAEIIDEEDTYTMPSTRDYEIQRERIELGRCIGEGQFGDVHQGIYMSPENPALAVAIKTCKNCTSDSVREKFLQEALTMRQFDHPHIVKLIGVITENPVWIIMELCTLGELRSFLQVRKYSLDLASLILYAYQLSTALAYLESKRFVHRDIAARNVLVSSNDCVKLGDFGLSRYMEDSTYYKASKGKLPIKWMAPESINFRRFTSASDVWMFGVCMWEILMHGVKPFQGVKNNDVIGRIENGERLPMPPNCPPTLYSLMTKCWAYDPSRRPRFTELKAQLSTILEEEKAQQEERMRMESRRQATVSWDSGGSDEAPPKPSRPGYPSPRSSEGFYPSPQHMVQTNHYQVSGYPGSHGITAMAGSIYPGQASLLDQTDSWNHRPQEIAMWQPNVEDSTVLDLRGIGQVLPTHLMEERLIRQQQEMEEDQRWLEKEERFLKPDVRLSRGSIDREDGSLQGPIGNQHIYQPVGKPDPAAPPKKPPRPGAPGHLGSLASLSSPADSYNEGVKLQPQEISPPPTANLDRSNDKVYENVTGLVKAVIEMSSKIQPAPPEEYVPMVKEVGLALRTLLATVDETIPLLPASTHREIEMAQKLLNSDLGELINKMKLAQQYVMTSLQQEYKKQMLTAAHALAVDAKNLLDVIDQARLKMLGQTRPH
Chain of Maternal embryonic leucine zipper kinase (Homo sapiens) (Q14680 whole entry, looked up): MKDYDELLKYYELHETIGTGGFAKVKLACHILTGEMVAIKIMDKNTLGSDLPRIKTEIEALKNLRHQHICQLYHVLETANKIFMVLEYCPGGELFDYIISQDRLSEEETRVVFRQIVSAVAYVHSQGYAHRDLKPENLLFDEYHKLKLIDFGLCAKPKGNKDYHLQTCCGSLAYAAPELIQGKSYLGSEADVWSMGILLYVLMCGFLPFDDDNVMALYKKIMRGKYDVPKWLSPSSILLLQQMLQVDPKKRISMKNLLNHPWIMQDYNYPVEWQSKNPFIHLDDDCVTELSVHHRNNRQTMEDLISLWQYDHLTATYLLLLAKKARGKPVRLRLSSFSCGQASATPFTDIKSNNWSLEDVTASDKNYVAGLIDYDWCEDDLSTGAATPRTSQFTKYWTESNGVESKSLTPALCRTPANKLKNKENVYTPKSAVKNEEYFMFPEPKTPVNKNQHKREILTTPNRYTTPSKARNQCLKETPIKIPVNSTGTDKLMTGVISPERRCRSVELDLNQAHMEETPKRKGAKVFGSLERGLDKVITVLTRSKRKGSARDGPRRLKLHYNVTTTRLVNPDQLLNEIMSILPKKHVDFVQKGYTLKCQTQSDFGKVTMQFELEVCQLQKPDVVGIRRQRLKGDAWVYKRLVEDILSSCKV

Take `COc1cc2c(Oc3ccc(-c4nc5ccccc5s4)cc3F)ncnc2cc1OCCCN1CCN(C)CC1`: the residual activity in experiment [1] amounted to 144%; in experiment [2], 95%; in experiment [3], 27%; in experiment [4] it was 54%; in experiment [5], 100%; in experiment [6], 102%. Also, the residual activity in experiment [7] is 32%; in [8] it was 60%; in [9] it was 91%; in experiment [10], 57%; in experiment [11] it was 84%; in [12], 76%. Further, the residual activity in [13] was determined as 142%; in experiment [14], 104%; in experiment [15] it was 81%; in [16], 100%; in [17] it was 101%; in experiment [18] it was 38%. In addition, the values for the residual activity in experiment [19], in [20] and in experiment [21] were 88%, 89% and 90%, respectively.

With `COc1cc2c(Oc3ccc(-c4nc5ccccc5s4)cc3)ncnc2cc1OCCCN1CCN(C)CC1`, the residual activity in experiment [1] amounted to 155%; in [2] it was 94%; in experiment [3], 12%; in [4], 95%; in experiment [5] it was 111%; in experiment [6], 90%. For the same compound, the residual activity turned out to be 30% in [7]; 111% in experiment [8]; 104% in experiment [9]; 65% in experiment [10]; 77% in experiment [11]; 100% in experiment [12]. Also, the residual activity worked out at 135% in experiment [13]; 93% in experiment [14]; 83% in [15]; 109% in [16]; 93% in experiment [17]; 54% in [18]. Moreover, the residual activity stood at 90% in experiment [19], 81% in experiment [20] and 62% in experiment [21].

With `COc1cc2c(Oc3ccc(-c4nc5ccccc5s4)cc3)ncnc2cc1OCCCN1CCCC1`, the residual activity in [1] amounted to 139%; in experiment [2], 95%; in experiment [3], 6%; in experiment [4] it was 113%; in experiment [5] it was 96%; in experiment [6], 94%. Also, the residual activity in [7] was determined as 31%; in experiment [8] it was 34%; in experiment [9], 101%; in experiment [10], 95%; in experiment [11] it was 61%; in [12], 95%. Also, the residual activity came to 162% in experiment [13]; 98% in experiment [14]; 82% in experiment [15]; 104% in experiment [16]; 100% in [17]; 34% in experiment [18]. For the same compound, the figures for the residual activity in [19], in experiment [20] and in [21] were 98%, 89% and 67%, respectively.
